Reference: PubChem BioAssay (NCI)
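Step 1: Grow cells in 96-well plates. Step 2: Expose to compound for 48 hours at 5 concentrations. Step 3: Interpolate endpoints linearly; if unreached, use highest concentration. GI50 marks 50% less growth. The concentration for full growth arrest is given as TGI.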

Key:
Assay in all cases: NCI anticancer screen, dose series, 48 h
SN12C renal = test system: SN12C renal
SNB-75 CNS = test system: SNB-75 CNS
SK-MEL-28 melanoma = test system: SK-MEL-28 melanoma
HOP-62 NSCLC = test system: HOP-62 NSCLC
SF-268 CNS = test system: SF-268 CNS
OVCAR-4 ovarian = test system: OVCAR-4 ovarian
SK-MEL-5 melanoma = test system: SK-MEL-5 melanoma
HOP-92 NSCLC = test system: HOP-92 NSCLC

| SMILES | TGI (SN12C renal) [µM] | TGI (SNB-75 CNS) [µM] | TGI (SK-MEL-28 melanoma) [µM] | TGI (HOP-62 NSCLC) [µM] | TGI (SF-268 CNS) [µM] | TGI (OVCAR-4 ovarian) [µM] | TGI (SK-MEL-5 melanoma) [µM] | TGI (HOP-92 NSCLC) [µM] | GI50 (SN12C renal) [µM] | GI50 (SNB-75 CNS) [µM] | GI50 (SK-MEL-28 melanoma) [µM] | GI50 (SK-MEL-5 melanoma) [µM] | GI50 (SF-268 CNS) [µM] | GI50 (OVCAR-4 ovarian) [µM] | GI50 (HOP-92 NSCLC) [µM] |
| --- | --- | --- | --- | --- | --- | --- | --- | --- | --- | --- | --- | --- | --- | --- | --- |
| N#CC1CC2(C1)OCCS2 (stereo not given) | > 100 | > 100 | > 100 | > 100 | > 100 | > 100 | – | – | – | – | – | – | – | – | – |
| O=C(c1ccccc1)C1OC12C(=O)Nc1ccccc12 (stereo not given) | > 100 | 42.2 | > 100 | > 100 | > 100 | > 100 | 47.3 | 55.2 | – | – | – | – | – | – | – |
| COc1ccc(OC)c2c(C(=O)O)c(Cc3ccccc3)ccc12 | > 100 | > 100 | > 100 | > 100 | > 100 | > 100 | > 100 | – | – | – | – | – | – | – | – |
| CC(=O)O[C@]12CCCCCC1C1(O)C(O)CCCC[C@H]12 (stereo not given in full) | > 100 | > 100 | > 100 | > 100 | > 100 | > 100 | > 100 | – | – | – | – | – | – | – | – |
| CCOC(=O)c1ccc(C)c(N=NN(C)C)c1 | > 100 | > 100 | > 100 | > 100 | > 100 | > 100 | > 100 | > 100 | – | – | – | – | – | – | – |
| O=C1CSC(/C(=N/Nc2ccccc2)c2nc3ccccc3[nH]2)=N1 | > 100 | 97.6 | 79 | 67.3 | > 100 | > 100 | > 100 | 49.7 | – | – | – | – | – | – | – |
| COc1cc(/C=C(\C#N)c2ccccc2)cc(OC)c1 | > 100 | – | > 100 | > 100 | > 100 | > 100 | > 100 | – | – | – | – | – | – | – | – |
| C=CC/C=C/C/C=C/CCCCCCCc1cccc(O)c1C(=O)O | – | > 100 | 89.6 | 67.5 | 80.8 | > 100 | – | 75 | – | – | – | – | – | – | – |
| NC(=O)NCc1c(C(N)=O)ncn1Cc1ccccc1 | > 100 | > 100 | > 100 | > 100 | – | > 100 | > 100 | > 100 | – | – | – | – | – | – | – |
| CCN(CC)c1ccc(N=Nc2ccc(-c3nc4ccc[n+](C)c4s3)cc2)cc1 | 16.2 | 27.5 | – | 38.9 | 48.9 | 20 | 33.9 | 30.1 | – | – | – | – | – | – | – |
| CC(C)(C)c1cc(C(O)(C(F)(F)F)C(F)(F)F)c2c(c1)C(C(F)(F)F)(C(F)(F)F)OC(C(C)(C)C)N2 (stereo not given) | 14.6 | 11.7 | 18.8 | – | – | 18 | 3.6 | – | – | – | – | – | – | – | – |
| CCCCCCCCCCCC(=O)OCC1OC(OC)C(NC(=O)N(CCCl)N=O)C(O)C1O (stereo not given) | 29.5 | 52.8 | 35.6 | 42.9 | 16.4 | 37.6 | 29.9 | – | – | – | – | – | – | – | – |
| OCc1ccc(C2CC(c3ccco3)=NN2c2ccccc2)o1 (stereo not given) | > 100 | > 100 | > 100 | > 100 | > 100 | > 100 | > 100 | – | – | – | – | – | – | – | – |
| C/C(CC(=O)NCCc1ccccc1)=N\NC(=O)C[n+]1ccccc1 | – | > 100 | > 100 | > 100 | > 100 | – | > 100 | > 100 | – | – | – | – | – | – | – |
| O=C1/C(=C/c2cccc([N+](=O)[O-])c2)COc2ccc(Br)cc21 | – | > 100 | > 100 | > 100 | > 100 | – | > 100 | > 100 | – | – | – | – | – | – | – |
| Clc1ccc2c(c1)-c1c3c(nn1-c1ccccc1)-c1ccccc1SC3O2 (stereo not given) | – | > 100 | > 100 | > 100 | > 100 | – | > 100 | > 100 | – | – | – | – | – | – | – |
| O=C1NC2OC(C(O)CO)C(O)C2O1 (stereo not given) | > 100 | > 100 | > 100 | – | > 100 | > 100 | > 100 | > 100 | – | – | – | – | – | – | – |
| C1C[OH+]CC[OH+]CC[OH+]CC[OH+]CC[OH+]1.[Cl-].[V] | > 100 | 41.2 | > 100 | – | > 100 | 41.6 | 26.6 | > 100 | > 100 | 16.2 | 25.1 | 7.48 | 73.2 | 6.03 | 34.3 |
| CCOC(=O)NC(=O)c1cn(CCCOC(=O)CCCCCCCCCCC(=O)OCCCn2cc(C(=O)NC(=O)OCC)c(=O)[nH]c2=O)c(=O)[nH]c1=O | > 100 | – | > 100 | > 100 | > 100 | > 100 | > 100 | > 100 | – | – | – | – | – | – | – |
| Cc1c(C(=O)/C=C/c2ccccc2)[n+](=O)c2ccccc2n1[O-] | 33.6 | 64.7 | 31 | 37.9 | 40.1 | 33 | – | 28 | – | – | – | – | – | – | – |
| COc1c(C(C)C)cc2c3c1OC(=O)[C@@]31CCCC(C)(C)C1CC2 (stereo not given in full) | > 100 | 55.7 | > 100 | > 100 | > 100 | – | 28.4 | – | – | – | – | – | – | – | – |
| CN(C)c1cc[c]([Sn]([c]2ccc(N(C)C)cc2)([c]2ccc(N(C)C)cc2)[c]2ccc(N(C)C)cc2)cc1 | > 100 | 17.2 | – | – | 25.4 | 20.7 | 14.2 | 20.5 | > 100 | 4.36 | – | 2.85 | 3.67 | 7.65 | 8.08 |
